Patent US20200239530A1, “COMPOUNDS AND METHODS OF MODULATING PROTEIN DEGRADATION” (Vividion Therapeutics, Inc., priority 2017, published 2020)

Tests used:
[1] = molecular target: T1, FAM120A Constitutive coactivator of PPAR-gamma-like protei (Homo sapiens, UniProt Q9NZB2); test: Cysteine liganding, probe competition; type: binding
T1 construct: 200 μL of lysate containing 5 mg/ml proteome was treated with 2 μL of 100× compound stock; endogenous in cells
T1 sequence (Q9NZB2 1-1118): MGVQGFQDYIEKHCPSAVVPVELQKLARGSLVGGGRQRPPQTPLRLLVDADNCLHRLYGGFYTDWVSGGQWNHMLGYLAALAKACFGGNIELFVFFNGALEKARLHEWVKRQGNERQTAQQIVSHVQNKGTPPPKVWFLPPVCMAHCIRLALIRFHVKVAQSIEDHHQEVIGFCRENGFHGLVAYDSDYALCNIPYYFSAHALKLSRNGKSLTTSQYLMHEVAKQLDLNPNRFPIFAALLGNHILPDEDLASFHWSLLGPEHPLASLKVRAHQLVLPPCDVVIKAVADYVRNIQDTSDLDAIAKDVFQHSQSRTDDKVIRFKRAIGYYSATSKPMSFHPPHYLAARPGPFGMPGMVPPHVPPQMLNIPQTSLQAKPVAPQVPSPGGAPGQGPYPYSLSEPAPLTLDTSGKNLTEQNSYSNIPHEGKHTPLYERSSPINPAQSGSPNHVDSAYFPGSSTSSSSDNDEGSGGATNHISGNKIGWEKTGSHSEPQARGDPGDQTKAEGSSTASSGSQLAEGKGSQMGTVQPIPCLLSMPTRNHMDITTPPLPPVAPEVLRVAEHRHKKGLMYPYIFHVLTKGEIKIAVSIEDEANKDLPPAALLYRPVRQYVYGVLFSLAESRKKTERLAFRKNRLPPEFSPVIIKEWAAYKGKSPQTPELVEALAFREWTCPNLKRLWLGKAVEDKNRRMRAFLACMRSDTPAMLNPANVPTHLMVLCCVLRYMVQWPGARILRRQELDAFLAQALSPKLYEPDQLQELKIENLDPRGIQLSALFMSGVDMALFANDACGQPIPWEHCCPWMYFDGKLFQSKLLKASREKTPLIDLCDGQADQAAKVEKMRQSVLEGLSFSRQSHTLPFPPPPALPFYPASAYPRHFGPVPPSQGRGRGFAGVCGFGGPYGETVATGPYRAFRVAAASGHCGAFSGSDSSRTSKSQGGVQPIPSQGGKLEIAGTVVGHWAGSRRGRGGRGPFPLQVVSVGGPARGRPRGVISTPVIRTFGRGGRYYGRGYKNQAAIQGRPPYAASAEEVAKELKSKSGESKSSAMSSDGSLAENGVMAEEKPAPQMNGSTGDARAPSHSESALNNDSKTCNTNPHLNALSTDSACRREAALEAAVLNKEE
In short: (§1)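 Steps: sonicate cells in cold PBS; treat 5 mg/ml lysate with compound (25° C, 1 hr); add desthiobiotin iodoacetamide probe from a 10 mM stock (25° C, 1 hr); precipitate, reduce, alkylate, digest with trypsin; capture labelled peptides on streptavidin for analysis.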

[2] = molecular target: T2, BIRC3 Baculoviral IAP repeat-containing protein 3 (Homo sapiens, UniProt Q13489); test: Cysteine liganding, probe competition; type: binding
T2 construct: Cells were resuspended in cold PBS on ice and sonicated with a probe sonicator to achieve lysis; endogenous in cells
In short: as §1

T2 sequence (Q13489 whole entry): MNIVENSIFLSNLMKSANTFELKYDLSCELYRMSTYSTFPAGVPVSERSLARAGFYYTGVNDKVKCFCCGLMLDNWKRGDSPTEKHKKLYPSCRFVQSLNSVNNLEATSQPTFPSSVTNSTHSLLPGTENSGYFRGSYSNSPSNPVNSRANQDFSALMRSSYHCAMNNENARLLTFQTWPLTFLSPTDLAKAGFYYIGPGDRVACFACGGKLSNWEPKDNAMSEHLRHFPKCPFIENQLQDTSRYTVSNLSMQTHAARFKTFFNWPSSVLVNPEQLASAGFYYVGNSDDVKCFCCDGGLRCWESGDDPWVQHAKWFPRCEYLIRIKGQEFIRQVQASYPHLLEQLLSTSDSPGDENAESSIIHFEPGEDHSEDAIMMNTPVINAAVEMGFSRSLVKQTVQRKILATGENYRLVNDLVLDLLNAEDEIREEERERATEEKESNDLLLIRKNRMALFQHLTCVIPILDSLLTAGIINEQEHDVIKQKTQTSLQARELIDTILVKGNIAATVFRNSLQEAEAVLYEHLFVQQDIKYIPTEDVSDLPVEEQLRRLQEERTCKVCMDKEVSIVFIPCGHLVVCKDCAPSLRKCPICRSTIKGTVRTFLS

| Compound | Liganded ([1]; FAM120A Res# 919, uniprot Q9NZB2) | Liganded ([2]; BIRC3 Res# 28, uniprot Q13489) | 100 ave ([1]; uniprot Q9NZB2) | 500 Max ([1]; uniprot Q9NZB2) | 500 ave ([1]; uniprot Q9NZB2) | 100 Max ([1]; uniprot Q9NZB2, in % (unit assumed)) | 100 Max ([2]; uniprot Q13489) | 100 ave ([2]; uniprot Q13489) | 500 Max ([2]; uniprot Q13489) | 500 ave ([2]; uniprot Q13489) |
| --- | --- | --- | --- | --- | --- | --- | --- | --- | --- | --- |
| COc1ccc2c(c1)CCCN2C(=O)CCl [KB02] | YES | YES |  |  |  |  |  |  |  |  |
| O=C(CCl)Nc1cc(C(F)(F)F)cc(C(F)(F)F)c1 [KBO3] |  |  | −8.925 | 55.62 | 55.62 | 13.09 | 1.3 | −2.6 | 18.7 | 18.7 |
